From patent publication US20140128399A1, “METHODS AND COMPOSITIONS FOR TREATING URINARY TRACT INFECTIONS USING AGENTS THAT MIMIC OR ELEVATE CYCLIC AMP” (DUKE UNIVERSITY, priority 2007, published 2014)

Tests used:
Assay type in all cases: cell-based, human
[1] = system: E. coli ORN103(pSH2) within 5637 BECs; experiment: Intracellular bacteria survival assay (antibiotic protection); conditions: NH4Cl 10 mM, 50 mM; Bafilomycin 1 μM
Protocol: In this assay, 5637 BECs were infected with ORN103(pSH2) E. coli diluted in RPMI 1640 medium at a multiplicity of infection (MOI) of 100:1. Cells were centrifuged for 5 min at 600 g, and incubated for 60 min at 37° C. Next, the cells were incubated with 100 μg/ml of gentamicin (Invitrogen) in RPMI medium for 30 min, and then with 10 μg/ml gentamicin in RPMI medium. At each time point, the cells were washed using PBS, solubilized with 0.1% Triton X-100 in PBS and plated for colony counts.

[2] = system: 5637 BECs; experiment: β-hexosaminidase release assay; conditions: for release of β-hexosaminidase from E. coli-infected BECs: E. coli ORN103(pSH2)-infected 5637 BECs, NiCl2 2 mM, H89 10 μM; for release of β-hexosaminidase into extracellular media: uninfected 5637 BECs, 1 hr, forskolin 100 μM, dibutyryl-cAMP 1 mM, calcium ionophore 1 μM
[3] = system: E. coli ORN103(pSH2)-infected 5637 BECs; experiment: Bacterial exocytosis assay; conditions: inhibitors added during gentamicin incubation; H89 10 μM, NiCl2
Protocol: In this assay, 5637 BECs were infected with bacteria as above. Infection continued for 60 min, and then the cells were washed with culture medium (including 100 μg/ml gentamicin and 100 mM methyl α-D-mannopyranoside (Sigma, St. Louis, Mo.)) for an additional 30 min. The cells were then washed twice and then allowed to incubate for 1-4 h with fresh culture medium containing 100 mM methyl α-D-mannopyranoside. At each time point, the culture medium and one wash of 100 μl of culture medium with methyl α-D-mannopyranoside were collected and pooled. The inhibitors H89 (10 μM) and NiCl2 ([…]) were added during the gentamicin incubation and left in the culture medium. All homogenates and pooled culture medium were cultured for colony counts. All exocytosis assays had n=12 wells of a 96-well plate.

CO/C1=C\C(C)=C\[C@@H](C)[C@@H](O)[C@@H](C)C/C(C)=C/C=C/[C@H](OC)[C@@H]([C@@H](C)[C@@H](O)[C@H](C)[C@@]2(O)C[C@@H](O)[C@H](C)[C@@H](C(C)C)O2)OC1=O [Bafilomycin]
E. coli ORN103(pSH2) persistence within 5637 BECs [1]: caused no improvement

O=S(=O)(NCCNC/C=C/c1ccc(Br)cc1)c1cccc2cnccc12 [H89]
release of β-hexosaminidase from E. coli-infected BECs [2]: regulatable
E. coli ORN103(pSH2) exocytosis into antibiotic-free medium [3]: reduced

Cl.N [NH4Cl]
E. coli ORN103(pSH2) persistence within 5637 BECs [1]: caused no improvement

[Cl][Ni][Cl] [NiCl2]
release of β-hexosaminidase from E. coli-infected BECs [2]: regulatable
E. coli ORN103(pSH2) exocytosis into antibiotic-free medium [3]: reduced

C[C@H](CCC(=O)O)C[C@H](C)C[C@H](C)C(=O)/C=C(\O)[C@H](C)C[C@H](C)C/C=C/[C@@H](C)[C@@H](O)[C@@H](C)[C@@H](O)C[C@@H]1CC[C@@](C)([C@H]2CC[C@@](C)([C@@H](C)O)O2)O1 [calcium ionophore, ionomycin]
release of β-hexosaminidase into extracellular media [2]: stimulated the BECs to release appreciable levels of β-hexosaminidase

CCCC(=O)Nc1ncnc2c1ncn2[C@@H]1O[C@@H]2COP(=O)(O)O[C@H]2[C@H]1OC(=O)CCC [dibutyryl-cAMP]
release of β-hexosaminidase into extracellular media [2]: stimulated the BECs to release appreciable levels of β-hexosaminidase
